The values that follow come from US20250313820A1, “PEPTIDES WITH MULTIVALENT EFFECTS” (In2Cure AB, priority 2021, published 2025).

The test system of one series is whole blood. The class given is cell-based, human. Conditions: 1 h. As to the method: (§1) Fresh venous blood from healthy donors was collected in lepirudine tubes (50 μg mL-1). Then 50 μL of blood were transferred to round-bottom 96-wells plate containing 150 μL of peptides previously diluted in RPMI-1640—GlutaMAX-I without phenol red (Gibco). 1:4 diluted blood was used as control. 50 μL of blood mixed with 150 μl 5% Tween-20 were used as positive control. After 1 h incubation at 37° C. and 5% CO2, the plate was centrifuged at 800 g, 150 μL of each sample were transferred to a flat-bottom 96-wells plate and the absorbance at 450 nm was measured. The percentage of hemolysis was calculated following the formula reported below: […]
(§2) Data shown are mean values±SEM obtained from at least four independent experiments all made in triplicate. For each experiment blood from a different donor was used.

In the next series the test system is erythrocytes (RBCs). The format is cell-based, human. The following applies: for Hemolytic activity, lysed RBCs: 1 h. As to the method: as §1
To evaluate the hemolytic effect of the peptides on erythrocytes the blood was collected as reported above and centrifuged at 250 g for 10 min. Then plasma was discarded, and red blood cells were washed with 150 mM NaCl in 10 mM Tris pH 7.4 for three times. Next, the pellet was dilute 100 times with saline Tris buffer. 100 μL of this solution were added to round-bottom 96-wells plate containing 100 μL of peptides previously diluted in saline Tris buffer. After 1 h incubation at 37° C. and 5% CO2, the plate was centrifuged and the absorbance at 450 nm was measured, then the percentage of erythrocyte lysis was determined using formula reported above.
as §2

SMILES strings stand for the structures. Like-named read-outs stand apart in the source and are kept apart here. Marks after values point to notes of the source that are not given here. Where a SMILES comes first, the peptide text is derived from it. Bridges are numbered along the chain shown (N, C = ends). [ ]: non-standard residue; d: D form. S5 = C=CCCC[C@](C)(N)C(=O)O A value given as a limit tells only on which side of the number the result lay.

Turning to `CC[C@H](C)[C@H](NC(=O)[C@H](Cc1c[nH]c2ccccc12)NC(=O)[C@H](CCCCN)NC(=O)[C@H](CCCCN)NC(=O)[C@H](CC(C)C)NC(=O)[C@H](CCCNC(=N)N)NC(=O)[C@H](Cc1ccccc1)NC(=O)[C@@H](NC(=O)[C@H](CCCNC(=N)N)NC(=O)[C@@H](N)CCCNC(=N)N)C(C)C)C(=O)N[C@@]1(C)CCCC=CCCC[C@@](C)(C(=O)N[C@@H](CCC(N)=O)C(=O)N[C@@H](Cc2ccccc2)C(=O)NCC(=O)N[C@@H](CCC(=O)O)C(=O)O)NC(=O)[C@H]([C@@H](C)CC)NC(=O)[C@H](C(C)C)NC(=O)[C@H](CCCCN)NC1=O` [sRRVF18, RRVFRLKKWIX1KVIX2QFGE] (H-RRVFRLKKWI[S5]KVI[S5]QFGE-OH; staple 11-15), the “Hemolytic activity, lysed RBCs in whole blood” value in the series on whole blood was under 1%. Further, the “Hemolytic activity, lysed RBCs” value with erythrocytes (RBCs) was 49.1 ± 4.9%.

As to `CC[C@H](C)[C@H](NC(=O)[C@H](Cc1c[nH]c2ccccc12)NC(=O)[C@H](CCCCN)NC(=O)[C@H](CCCCN)NC(=O)[C@@H](N)CC(C)C)C(=O)N[C@@]1(C)CCCC=CCCC[C@@](C)(C(=O)N[C@@H](CCC(N)=O)C(=O)N[C@@H](Cc2ccccc2)C(=O)NCC(=O)N[C@@H](CCC(=O)O)C(=O)O)NC(=O)[C@H]([C@@H](C)CC)NC(=O)[C@H](C(C)C)NC(=O)[C@H](CCCCN)NC1=O` [sLKK14, LKKWIX1KVIX2QFGE] (H-LKKWI[S5]KVI[S5]QFGE-OH; staple 6-10), the “hemolytic activity, RBCs or whole blood (heatmaps FIG. 4, FIG. 20a), in words” value in the series with erythrocytes (RBCs) was “low hemolytic activity”.

Consider `CC[C@H](C)[C@H](NC(=O)[C@H](Cc1c[nH]c2ccccc12)NC(=O)[C@H](CCCCN)NC(=O)[C@H](CCCCN)NC(=O)[C@H](CC(C)C)NC(=O)[C@H](CCCNC(=N)N)NC(=O)[C@H](Cc1ccccc1)NC(=O)[C@@H](NC(=O)[C@@H](N)CCCCN)C(C)C)C(=O)N[C@@]1(C)CCCC=CCCC[C@@](C)(C(=O)N[C@@H](CCC(N)=O)C(=O)N[C@@H](Cc2ccccc2)C(=O)NCC(=O)N[C@@H](CCC(=O)O)C(=O)O)NC(=O)[C@H]([C@@H](C)CC)NC(=O)[C@H](C(C)C)NC(=O)[C@H](CCCCN)NC1=O` [sKVF18, KVFRLKKWIXKVIXQFGE] (H-KVFRLKKWI[S5]KVI[S5]QFGE-OH; staple 10-14), for which the “Hemolytic activity, lysed RBCs in whole blood” value with whole blood is given as under 1%. Further, the “Hemolytic activity, lysed RBCs” value in the series on erythrocytes (RBCs) came to 51.4 ± 4.9%.

`CC[C@H](C)[C@H](NC(=O)[C@H](Cc1c[nH]c2ccccc12)NC(=O)[C@H](CCCCN)NC(=O)[C@H](CCCCN)NC(=O)[C@H](CC(C)C)NC(=O)[C@H](CCCNC(=N)N)NC(=O)[C@H](Cc1ccccc1)NC(=O)[C@@H](NC(=O)[C@H](CCCNC(=N)N)NC(=O)[C@H](CCCNC(=N)N)NC(=O)[C@H](CCCNC(=N)N)NC(=O)[C@@H](N)CCCNC(=N)N)C(C)C)C(=O)N[C@@]1(C)CCCC=CCCC[C@@](C)(C(=O)N[C@@H](CCC(N)=O)C(=O)N[C@@H](Cc2ccccc2)C(=O)NCC(=O)N[C@@H](CCC(=O)O)C(=O)O)NC(=O)[C@H]([C@@H](C)CC)NC(=O)[C@H](C(C)C)NC(=O)[C@H](CCCCN)NC1=O` [sRRRRVF18, RRRRVFRLKKWIX1KVIX2QFGE] (H-RRRRVFRLKKWI[S5]KVI[S5]QFGE-OH; staple 13-17): the “Hemolytic activity, lysed RBCs in whole blood” value with whole blood is reported as under 1%. In the series with erythrocytes (RBCs), the “Hemolytic activity, lysed RBCs” value is 64.9 ± 11.4%.

For `CC[C@H](C)[C@H](NC(=O)[C@H](Cc1c[nH]c2ccccc12)NC(=O)[C@H](CCCCN)NC(=O)[C@H](CCCCN)NC(=O)[C@H](CC(C)C)NC(=O)[C@H](CCCNC(=N)N)NC(=O)[C@H](Cc1ccccc1)NC(=O)[C@@H](NC(=O)[C@H](CCCCN)NC(=O)[C@H](CCCCN)NC(=O)[C@H](CCCCN)NC(=O)[C@@H](N)CCCCN)C(C)C)C(=O)N[C@@]1(C)CCCC=CCCC[C@@](C)(C(=O)N[C@@H](CCC(N)=O)C(=O)N[C@@H](Cc2ccccc2)C(=O)NCC(=O)N[C@@H](CCC(=O)O)C(=O)O)NC(=O)[C@H]([C@@H](C)CC)NC(=O)[C@H](C(C)C)NC(=O)[C@H](CCCCN)NC1=O` [sKKKKVF18, KKKKVFRLKKWIX1KVIX2QFGE] (H-KKKKVFRLKKWI[S5]KVI[S5]QFGE-OH; staple 13-17), in the series with whole blood, the “Hemolytic activity, lysed RBCs in whole blood” value is on record as under 1%. Besides, the “Hemolytic activity, lysed RBCs” value with erythrocytes (RBCs) turned out to be 39.1 ± 5.4%.

`CC[C@H](C)[C@H](NC(=O)[C@H](Cc1c[nH]c2ccccc12)NC(=O)[C@H](CCCCN)NC(=O)[C@H](CCCCN)NC(=O)[C@H](CC(C)C)NC(=O)[C@H](CCCNC(=N)N)NC(=O)[C@H](Cc1ccccc1)NC(=O)[C@@H](NC(=O)[C@H](CCCCN)NC(=O)[C@H](CCCCN)NC(=O)[C@@H](N)CCCCN)C(C)C)C(=O)N[C@@]1(C)CCCC=CCCC[C@@](C)(C(=O)N[C@@H](CCC(N)=O)C(=O)N[C@@H](Cc2ccccc2)C(=O)NCC(=O)N[C@@H](CCC(=O)O)C(=O)O)NC(=O)[C@H]([C@@H](C)CC)NC(=O)[C@H](C(C)C)NC(=O)[C@H](CCCCN)NC1=O` [sKKKVF18, KKKVFRLKKWIX1KVIX2QFGE] (H-KKKVFRLKKWI[S5]KVI[S5]QFGE-OH; staple 12-16): the “Hemolytic activity, lysed RBCs in whole blood” value in the series with whole blood is given as under 1%. Besides, in the series with erythrocytes (RBCs), the “Hemolytic activity, lysed RBCs” value is on record as 47.1 ± 8.1%.

On to `CC[C@H](C)[C@H](NC(=O)[C@H](Cc1c[nH]c2ccccc12)NC(=O)[C@H](CCCCN)NC(=O)[C@@H](N)CCCCN)C(=O)N[C@@]1(C)CCCC=CCCC[C@@](C)(C(=O)N[C@@H](CCC(N)=O)C(=O)N[C@@H](Cc2ccccc2)C(=O)NCC(=O)N[C@@H](CCC(=O)O)C(=O)O)NC(=O)[C@H]([C@@H](C)CC)NC(=O)[C@H](C(C)C)NC(=O)[C@H](CCCCN)NC1=O` [sKKW13, KKWIX1KVIX2QFGE] (H-KKWI[S5]KVI[S5]QFGE-OH; staple 5-9), for which the “hemolytic activity, RBCs or whole blood (heatmaps FIG. 4, FIG. 20a), in words” value in the series on erythrocytes (RBCs) was “low hemolytic activity”.

On to `CC[C@H](C)[C@H](NC(=O)[C@H](Cc1c[nH]c2ccccc12)NC(=O)[C@H](CCCCN)NC(=O)[C@H](CCCCN)NC(=O)[C@H](CC(C)C)NC(=O)[C@H](CCCNC(=N)N)NC(=O)[C@H](Cc1ccccc1)NC(=O)[C@@H](NC(=O)[C@@H](N)CCCNC(=N)N)C(C)C)C(=O)N[C@@]1(C)CCCC=CCCC[C@@](C)(C(=O)N[C@@H](CCC(N)=O)C(=O)N[C@@H](Cc2ccccc2)C(=O)NCC(=O)N[C@@H](CCC(=O)O)C(=O)O)NC(=O)[C@H]([C@@H](C)CC)NC(=O)[C@H](C(C)C)NC(=O)[C@H](CCCCN)NC1=O` [sRVF18, RVFRLKKWIXKVIXQFGE] (H-RVFRLKKWI[S5]KVI[S5]QFGE-OH; staple 10-14), for which the “Hemolytic activity, lysed RBCs in whole blood” value in the series on whole blood is listed as under 1%. Also, the “Hemolytic activity, lysed RBCs” value with erythrocytes (RBCs) is listed as 53.6 ± 3.8%.

In the case of `CC[C@H](C)[C@H](NC(=O)[C@H](Cc1c[nH]c2ccccc12)NC(=O)[C@H](CCCCN)NC(=O)[C@H](CCCCN)NC(=O)[C@H](CC(C)C)NC(=O)[C@H](CCCNC(=N)N)NC(=O)[C@H](Cc1ccccc1)NC(=O)[C@@H](NC(=O)[C@H](CCCNC(=N)N)NC(=O)[C@H](CCCNC(=N)N)NC(=O)[C@@H](N)CCCNC(=N)N)C(C)C)C(=O)N[C@@]1(C)CCCC=CCCC[C@@](C)(C(=O)N[C@@H](CCC(N)=O)C(=O)N[C@@H](Cc2ccccc2)C(=O)NCC(=O)N[C@@H](CCC(=O)O)C(=O)O)NC(=O)[C@H]([C@@H](C)CC)NC(=O)[C@H](C(C)C)NC(=O)[C@H](CCCCN)NC1=O` [sRRRVF18, RRRVFRLKKWIX1KVIX2QFGE] (H-RRRVFRLKKWI[S5]KVI[S5]QFGE-OH; staple 12-16), in the series on whole blood, the “Hemolytic activity, lysed RBCs in whole blood” value is given as under 1%. Besides, the “Hemolytic activity, lysed RBCs” value in the series with erythrocytes (RBCs) came out at 61.5 ± 6.2%.

With `CC[C@H](C)[C@H](NC(=O)[C@H](Cc1c[nH]c2ccccc12)NC(=O)[C@H](CCCCN)NC(=O)[C@H](CCCCN)NC(=O)[C@H](CC(C)C)NC(=O)[C@H](CCCNC(=N)N)NC(=O)[C@H](Cc1ccccc1)NC(=O)[C@@H](NC(=O)[C@H](CCCCN)NC(=O)[C@@H](N)CCCCN)C(C)C)C(=O)N[C@@]1(C)CCCC=CCCC[C@@](C)(C(=O)N[C@@H](CCC(N)=O)C(=O)N[C@@H](Cc2ccccc2)C(=O)NCC(=O)N[C@@H](CCC(=O)O)C(=O)O)NC(=O)[C@H]([C@@H](C)CC)NC(=O)[C@H](C(C)C)NC(=O)[C@H](CCCCN)NC1=O` [sKKVF18, KKVFRLKKWIX1KVIX2QFGE] (H-KKVFRLKKWI[S5]KVI[S5]QFGE-OH; staple 11-15), the “Hemolytic activity, lysed RBCs in whole blood” value with whole blood is reported as under 1%. The “Hemolytic activity, lysed RBCs” value in the series on erythrocytes (RBCs) is recorded as 27.8 ± 3.0%.

As to `CC[C@H](C)[C@H](NC(=O)[C@H](Cc1c[nH]c2ccccc12)NC(=O)[C@H](CCCCN)NC(=O)[C@H](CCCCN)NC(=O)[C@H](CC(C)C)NC(=O)[C@H](CCCNC(=N)N)NC(=O)[C@H](Cc1ccccc1)NC(=O)[C@@H](NC(=O)[C@@H](N)Cc1cnc[nH]1)C(C)C)C(=O)N[C@@H](CCC(N)=O)C(=O)N[C@@H](CCCCN)C(=O)N[C@H](C(=O)N[C@H](C(=O)N[C@@H](CC(=O)O)C(=O)N[C@@H](CCC(N)=O)C(=O)N[C@@H](Cc1ccccc1)C(=O)NCC(=O)N[C@@H](CCC(=O)O)C(=O)O)[C@@H](C)CC)C(C)C` [HVF18, reference compound] (H-HVFRLKKWIQKVIDQFGE-OH), the “Hemolytic activity, lysed RBCs in whole blood” value in the series on whole blood (50 μM) is on record as <1* %. In the series with erythrocytes (RBCs) (50 μM), the “Hemolytic activity, lysed RBCs” value was found to be 28.5 ± 3.0 %.
